Data from US20240150711A1, “PERSONALIZED REDIRECTION AND REPROGRAMMING OF T CELLS FOR PRECISE TARGETING OF TUMORS” (Dana-Farber Cancer Institute, Inc., priority 2021, published 2024).

Test system: Tcf7
Experiment: Tcf7 protein levels by intracellular flow cytometry in CD8 T cells cultured with neutralizing antibodies or added cytokines
Assay type: cell-based
Conditions: naïve CD8 T cells from wild-type mice, anti-CD3/anti-CD28 stimulation, cultured 1 week in IL2, IL7, IL15, IL21; versus isotype antibodies
Text: Next, it was sought to determine whether the effects of blocking IFN-γ signaling on the Tcf7+ phenotype could be recapitulated using a method separate from CRISPR-deletion, such as with neutralizing antibodies. As such, antibodies to both the Ifn-gamma and Ifn-gamma receptor genes were used. Naïve CD8 T cells were isolated from wild-type mice and cultured in the presence of either isotype-control or a combination of Ifn-gamma and IfngR neutralizing antibodies at various dosing levels or in the presence of added cytokines (either IFN-gamma, IFN-alpha, or IL12), then stimulated with anti-CD3/anti-CD28 antibodies and cultured for 1 week in IL2, IL7, IL15, and IL21, and Tcf7 protein levels were quantified by intracellular flow cytometry, as shown in FIG. 11.

## interferon-γ: added cytokine
  Tcf7 expression (Tcf7 protein levels): no effect on Tcf7 expression
